This note sets out measurements from patent US20240336574A1 (LATIGO BIOTHERAPEUTICS, INC., priority 2021, published 2024).

In general, IC50 refers to the concentration that inhibits the measured activity by half.

Where two headings read alike, the source gives them in different places.

For one assay, the target named is human NaV1.8 (Homo sapiens, UniProt Q9Y5Y9). Description: Human NaV1.8 cell line SyncroPatch384PE automated patch clamp assay. Format: cell-based. The arrangement: expressed in transfected cells; host or cells: HEK cells, stably transfected. Particulars: resting state block (P1 measurement), recombinant human NaV1.8 cells. How it is done:
Compound Profiling on NaV1.8—Human NaV1.8 Cell Line—SyncroPatch384PE Assay
Compounds were tested on recombinant human NaV1.8 stably transfected HELK cells using the SyncroPatch384PE system, an automated patch clamp device. Cells were cultured at 37° C./5% CO2 in DMEM medium supplemented with GlutaMAX I, NEAA 1%, FBS 10% and seeded in T175 flasks. Cells were cultured at 30° C. one day prior to recording sodium currents. On the day of the recordings, cells were detached with 0.05% Trypsin-EDTA, resuspended in serum free DMEM medium and placed into the SyncroPatch384PE 6° C. pre-cooled cell hotel and shaken at 200 rpm. Intracellular solution (IC) contained, in mM: 10, CsCl; 110, CsF; 20, EGTA; 10, HEPES. Extracellular solution (EC) contained, in mM: 140, NaCl; 4, KCl; 5, Glucose; 10, HEPES; 2, CaCl2; 1, MgCl2. Washing solution contained, in mM: 40, NMDG; 100, NaCl; 4, KCl; 10, Glucose; 10, HEPES; 5, CaCl2; 1, MgCl2.
Compounds were tested in quadruplicates in 0.1% DMSO and 0.030% Pluronic Acid. Compounds were diluted 1:3.33 in EC solution to create a 10-point concentration response curve, spanning a final concentration range from 10-0.0002 μM in the assay plate. Compounds with low nM potency were retested using a lower concentration range (1-0.00002 μM). Each plate contained tetracaine and another tool compound as positive controls. Up to 7 compounds were tested on one plate. 150 μM tetracaine and 0.1% DMSO were used as high and low controls, respectively.
Whole cell patch clamp recordings were conducted according to Nanion's standard procedure for SyncroPatch384PE®. Cells were held at a holding potential of −120 mV. A depolarization step to 10 mV for 30 ms was applied (P1 measurement), followed by a hyperpolarization step to −100 mV for 100 ms. An inactivation step at −40 mV for 10 sec was applied before stepping to −100 mV for 20 ms, followed by a step to 10 mV for 30 ms (P2 measurement) and then back to −100 mV for 30 ms. Sweep interval was 15 sec with a sampling rate of 10 kHz. Following establishment of the whole-cell configuration in EC, two washing steps with reference buffer were performed to stabilize the baseline. Compounds were then applied by the SynchroPatch into each well and the current was recorded for five minutes in EC, followed by application of tetracaine to achieve full block at the end of the experiment. The potency of the compounds was assessed on two read-outs, resting state block (P1 measurement) or inactivated state block (P2 measurement) to obtain IC50 values. Values were normalized to high (tetracaine) and low (DMSO) controls.
On the technique in general: Patch clamp records ionic current or voltage across a cell membrane.

Assay [1] deals with T1, recombinant human NaV1.8 stably transfected HEK cells (Homo sapiens, UniProt Q9Y5Y9).
T1 construct: expressed in transfected cells; host or cells: HEK cells, stably transfected
The assay is described as follows: Compound profiling on NaV1.8, human NaV1.8 cell line, SyncroPatch384PE automated patch clamp assay (Example 115, third set of compounds, Table 27). The format is cell-based. Particulars: human NaV1.8 HEK cells, Table 27 (third set of compounds). Put shortly: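 HEK cells, cultured at 30 °C the day before, recorded by automated whole-cell patch clamp (CsF intracellular, 140 mM Na+ external), holding −120 mV. 10-point curves at 10–0.0002 µM (or 1–0.00002 µM), 5 min exposure; IC50 for resting (P1) and inactivated-state block (P2, after 10 s at −40 mV), normalized to 150 µM tetracaine and 0.1% DMSO.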

[2] abbreviates: inactivated state block (P2 measurement), read-out: P2 IC50.
Where [3] appears, read: resting state block (P1 measurement), read-out: P1 IC50.

T1 sequence (Q9Y5Y9 whole entry): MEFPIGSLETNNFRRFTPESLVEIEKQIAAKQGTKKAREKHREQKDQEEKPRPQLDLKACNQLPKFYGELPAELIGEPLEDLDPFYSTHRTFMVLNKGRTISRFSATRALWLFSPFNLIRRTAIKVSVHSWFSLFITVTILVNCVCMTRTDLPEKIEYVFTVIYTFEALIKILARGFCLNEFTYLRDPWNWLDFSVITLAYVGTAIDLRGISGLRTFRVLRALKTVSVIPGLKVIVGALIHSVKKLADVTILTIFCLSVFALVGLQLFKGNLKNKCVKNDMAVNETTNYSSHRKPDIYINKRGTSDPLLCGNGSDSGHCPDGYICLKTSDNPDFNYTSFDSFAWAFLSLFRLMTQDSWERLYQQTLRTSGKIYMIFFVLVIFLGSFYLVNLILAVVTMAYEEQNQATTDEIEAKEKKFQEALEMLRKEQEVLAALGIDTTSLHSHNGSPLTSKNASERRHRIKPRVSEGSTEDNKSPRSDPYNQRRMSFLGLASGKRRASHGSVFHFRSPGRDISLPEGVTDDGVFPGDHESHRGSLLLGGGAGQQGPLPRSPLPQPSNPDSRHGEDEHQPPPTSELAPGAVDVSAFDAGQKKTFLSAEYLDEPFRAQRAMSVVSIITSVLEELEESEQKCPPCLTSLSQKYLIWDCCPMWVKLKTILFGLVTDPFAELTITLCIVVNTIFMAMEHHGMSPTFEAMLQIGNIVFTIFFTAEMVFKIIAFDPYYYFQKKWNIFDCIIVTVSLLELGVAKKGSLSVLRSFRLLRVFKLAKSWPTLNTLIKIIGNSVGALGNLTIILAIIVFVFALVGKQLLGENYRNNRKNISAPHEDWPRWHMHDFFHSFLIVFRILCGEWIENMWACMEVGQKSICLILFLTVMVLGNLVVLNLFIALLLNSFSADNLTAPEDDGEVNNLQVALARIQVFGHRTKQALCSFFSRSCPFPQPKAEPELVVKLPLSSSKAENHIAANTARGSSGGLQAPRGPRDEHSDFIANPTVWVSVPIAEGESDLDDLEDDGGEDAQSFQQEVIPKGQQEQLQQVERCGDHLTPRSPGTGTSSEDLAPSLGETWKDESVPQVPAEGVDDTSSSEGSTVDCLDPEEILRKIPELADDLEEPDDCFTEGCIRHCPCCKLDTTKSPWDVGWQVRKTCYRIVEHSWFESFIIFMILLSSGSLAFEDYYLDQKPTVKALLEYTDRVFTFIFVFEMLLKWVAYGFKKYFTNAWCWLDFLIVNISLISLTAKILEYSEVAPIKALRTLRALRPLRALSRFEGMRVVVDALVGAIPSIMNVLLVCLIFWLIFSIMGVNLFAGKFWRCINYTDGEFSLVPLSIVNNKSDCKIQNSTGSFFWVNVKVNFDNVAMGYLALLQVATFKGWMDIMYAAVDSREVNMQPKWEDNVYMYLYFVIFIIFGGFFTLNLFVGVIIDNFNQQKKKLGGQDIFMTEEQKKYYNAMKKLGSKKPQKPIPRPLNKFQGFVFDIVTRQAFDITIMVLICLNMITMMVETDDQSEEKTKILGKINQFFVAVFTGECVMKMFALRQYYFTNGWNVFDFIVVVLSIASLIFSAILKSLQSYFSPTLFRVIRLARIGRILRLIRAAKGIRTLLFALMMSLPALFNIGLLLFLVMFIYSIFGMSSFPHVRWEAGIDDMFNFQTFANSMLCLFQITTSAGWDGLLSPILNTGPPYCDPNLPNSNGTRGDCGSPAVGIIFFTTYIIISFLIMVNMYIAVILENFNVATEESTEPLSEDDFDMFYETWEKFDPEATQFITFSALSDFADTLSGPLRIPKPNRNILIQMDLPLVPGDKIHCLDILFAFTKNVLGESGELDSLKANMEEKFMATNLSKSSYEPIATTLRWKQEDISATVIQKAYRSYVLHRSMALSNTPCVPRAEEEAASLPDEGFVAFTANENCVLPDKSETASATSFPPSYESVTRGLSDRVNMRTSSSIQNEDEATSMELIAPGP
Sequence of human NaV1.8 (Q9Y5Y9 whole entry): as above

As for `COc1cc(F)ccc1Oc1nnc(C(F)(F)F)cc1C(=O)N[C@H]1CCCN(C(C)=O)C1` [Compound 8], the IC50 on human NaV1.8 was more than 5000 nM. Take `CSc1cccc(NC(=O)c2cc(C(F)(F)F)nnc2Oc2ccc(C#N)cc2C)c1` [Compound 110]: the half-inhibitory concentration (IC50) in assay [1] (setting [2]) and in assay [1] (setting [3]) was more than 5000 nM each time. Take `Cc1cc(OC(F)(F)F)ccc1Oc1nnc(C(F)(F)F)cc1C(=O)Nc1cccc(S(C)(=O)=O)c1` [Compound 35]: the IC50 in assay [1] (setting [2]) and in assay [1] (setting [3]) was not above 200 nM in each case. In the case of `CS(=O)(=O)c1cccc(NC(=O)c2cc(C(F)(F)F)nnc2Oc2ccc(OC(F)F)cc2)c1` [Compound 34], the IC50 in assay [1] (setting [2]) and in assay [1] (setting [3]) was not above 200 nM throughout. Consider `CS(=O)(=O)c1ccc(F)c(NC(=O)c2cc(C(F)(F)F)nnc2Oc2cc(F)ccc2Cl)c1` [Compound 74], for which the figures for the 50% inhibitory concentration (IC50) in assay [1] (setting [2]) and in assay [1] (setting [3]) were 501 to 1000 nM and not above 200 nM, respectively.

Consider `Cc1ccc(F)cc1Oc1nnc(C(F)(F)F)cc1C(=O)Nc1cccc(S(N)(=O)=O)c1` [Compound 119, 3-(5-Fluoro-2-methylphenoxy)-N-(3-sulfamoylphenyl)-6-(trifluoromethyl)pyridazine-4-carboxamide], for which the IC50 in assay [1] (setting [2]) and in assay [1] (setting [3]) was 501 to 1000 nM in each case.

As to `COc1ccc(F)cc1Oc1nnc(C(F)(F)F)cc1C(=O)Nc1cccc(S(C)(=N)=O)c1` (centres unmarked) [Compound 116], the IC50 in assay [1] (setting [2]) and in assay [1] (setting [3]) was 201 to 500 nM each time. Regarding `Cc1cc(F)ccc1Oc1nnc(C(F)(F)F)cc1C(=O)Nc1ccn2nnnc2c1` [Compound 135, 3-(4-Fluoro-2-methylphenoxy)-N-(tetrazolo[1,5-a]pyridin-7-yl)-6-(trifluoromethyl)pyridazine-4-carboxamide], the IC50 is 501 to 1000 nM in assay [1] (setting [2]) and not above 200 nM in assay [1] (setting [3]).

With `Cc1cc(C(F)(F)F)ccc1Oc1nnc(C(F)(F)F)cc1C(=O)Nc1cccc(S(C)(=O)=O)c1` [Compound 42], the IC50 in assay [1] (setting [2]) and in assay [1] (setting [3]) was not above 200 nM in each case. Consider `Cc1cc(F)ccc1Oc1nnc(C(F)(F)F)cc1C(=O)Nc1cccc([S@@](C)(=N)=O)c1` [Compound 103, (S)-3-(4-fluoro-2-methylphenoxy)-N-(3-(S-methylsulfonimidoyl)phenyl)-6-(trifluoromethyl)pyridazine-4-carboxamide], for which the half-inhibitory concentration (IC50) in assay [1] (setting [2]) is 201 to 500 nM; in assay [1] (setting [3]) it was more than 5000 nM. The matching figures for `Cc1cc(C#N)ccc1Oc1nnc(C(F)(F)F)cc1C(=O)Nc1cccc(S(C)(=O)=O)c1` [Compound 78]: more than 5000 nM and more than 5000 nM. Regarding `Cc1cc(F)ccc1Oc1nnc(C(F)(F)F)cc1C(=O)Nc1ccc(=O)[nH]c1` [Compound 41], the half-maximal inhibitory concentration (IC50) in assay [1] (setting [2]) is more than 5000 nM; in assay [1] (setting [3]), 1000 to 5000 nM. As for `COc1cc(F)ccc1Oc1nnc(C(F)(F)F)cc1C(=O)Nc1ccnc(S(N)(=O)=O)c1` [Compound 50], the IC50 in assay [1] (setting [2]) and in assay [1] (setting [3]) was not above 200 nM in each case. For `Cc1cc(C2CC2)ccc1Oc1nnc(C(F)(F)F)cc1C(=O)Nc1cccc(S(C)(=O)=O)c1` [Compound 87], the half-inhibitory concentration (IC50) in assay [1] (setting [2]) and in assay [1] (setting [3]) was not above 200 nM throughout. Consider `COc1cc(F)ccc1Oc1nnc(C(F)(F)F)cc1C(=O)Nc1ccn2cnnc2c1` [Compound 21], for which the IC50 in assay [1] (setting [2]) and in assay [1] (setting [3]) was 501 to 1000 nM each time. As to `O=C(Nc1ccnnc1)c1cc(C(F)(F)F)nnc1Oc1ccc(F)cc1Cl` [Compound 63], the IC50 in assay [1] (setting [2]) is 501 to 1000 nM; in assay [1] (setting [3]), 201 to 500 nM. Regarding `Cc1cc(C#N)ccc1Oc1nnc(C(F)(F)F)cc1C(=O)Nc1cccc(C(N)=O)c1` [Compound 79], the IC50 in assay [1] (setting [2]) and in assay [1] (setting [3]) was 201 to 500 nM throughout.

`Cc1cc(F)ccc1Oc1nnc(C(F)(F)F)cc1C(=O)Nc1ccnnc1` [Compound 59, 3-(4-Fluoro-2-methyl-phenoxy)-N-pyridazin-4-yl-6-(trifluoromethyl)pyridazine-4-carboxamide]: the results for the IC50 in assay [1] (setting [2]) and in assay [1] (setting [3]) were 201 to 500 nM and 501 to 1000 nM, respectively. The matching figures for `NS(=O)(=O)c1cccc(NC(=O)c2cc(C(F)(F)F)nnc2Oc2cc(F)ccc2Cl)c1` [Compound 118, 3-(2-Chloro-5-fluorophenoxy)-N-(3-sulfamoylphenyl)-6-(trifluoromethyl)pyridazine-4-carboxamide]: not above 200 nM and not above 200 nM. As for `Cc1cc(Br)ccc1Oc1nnc(C(F)(F)F)cc1C(=O)Nc1cccc(S(C)(=N)=O)c1` (centres unmarked) [Compound 117, 3-(4-Bromo-2-methylphenoxy)-N-(3-(S-methylsulfonimidoyl)phenyl)-6-(trifluoromethyl)pyridazine-4-carboxamide], the concentration for half-maximal inhibition (IC50) in assay [1] (setting [2]) and in assay [1] (setting [3]) was not above 200 nM each time. With `COc1cc(C#N)ccc1Oc1nnc(C(F)(F)F)cc1C(=O)Nc1cc(S(C)(=O)=O)ccc1F` [Compound 77], the 50% inhibitory concentration (IC50) in assay [1] (setting [2]) and in assay [1] (setting [3]) was 201 to 500 nM each time. Consider `COc1ccc(F)cc1Oc1nnc(C(F)(F)F)cc1C(=O)Nc1cccc(S(N)(=O)=O)c1` [Compound 122, 3-(5-Fluoro-2-methoxyphenoxy)-N-(3-sulfamoylphenyl)-6-(trifluoromethyl)pyridazine-4-carboxamide], for which the IC50 in assay [1] (setting [2]) lay in the range of 201 to 500 nM; in assay [1] (setting [3]), 501 to 1000 nM.

Consider `CNC(=O)c1cccc(NC(=O)c2cc(C(F)(F)F)nnc2Oc2ccc(F)cc2OC)c1` [Compound 129, 3-(4-Fluoro-2-methoxyphenoxy)-N-(3-(methylcarbamoyl)phenyl)-6-(trifluoromethyl)pyridazine-4-carboxamide], for which the concentration for half-maximal inhibition (IC50) in assay [1] (setting [2]) and in assay [1] (setting [3]) was 201 to 500 nM throughout. As to `COc1cc(C#N)ccc1Oc1nnc(C(F)(F)F)cc1C(=O)Nc1cccc(S(C)(=O)=O)c1` [Compound 75], the IC50 in assay [1] (setting [2]) and in assay [1] (setting [3]) was not above 200 nM throughout. In the case of `Cc1cc(F)ccc1Oc1nnc(C(F)(F)F)cc1C(=O)Nc1cccc(NS(C)(=O)=O)c1` [Compound 8], the concentration for half-maximal inhibition (IC50) in assay [1] (setting [2]) and in assay [1] (setting [3]) was 1000 to 5000 nM each time. For the molecule `COc1cc(F)ccc1Oc1nnc(C(F)(F)F)cc1C(=O)Nc1ccc2c(c1)S(=O)(=O)NC2=O` [Compound 43], the half-inhibitory concentration (IC50) in assay [1] (setting [2]) lay in the range of 1000 to 5000 nM; in assay [1] (setting [3]), 501 to 1000 nM. `CS(=O)(=O)c1cccc(NC(=O)c2cc(C(F)(F)F)nnc2Oc2ccc(F)cc2Cl)n1` [Compound 68]: the half-inhibitory concentration (IC50) in assay [1] (setting [2]) and in assay [1] (setting [3]) was more than 5000 nM each time. On to `COc1ccc(Oc2nnc(C(F)(F)F)cc2C(=O)Nc2cccc(S(C)(=O)=O)c2)c(C)c1` [Compound 53], for which the half-maximal inhibitory concentration (IC50) in assay [1] (setting [2]) and in assay [1] (setting [3]) was not above 200 nM throughout.

With `Cc1cc(F)ccc1Oc1nnc(C(F)(F)F)cc1C(=O)Nc1cccc(-c2cc[nH]n2)c1` [Compound 85], the IC50 in assay [1] (setting [2]) and in assay [1] (setting [3]) was more than 5000 nM throughout. `CSc1cccc(NC(=O)c2cc(C(F)(F)F)nnc2Oc2cc(F)ccc2Cl)c1` [Compound 111]: the half-inhibitory concentration (IC50) in assay [1] (setting [2]) and in assay [1] (setting [3]) was more than 5000 nM each time. Turning to `CS(=O)(=O)c1ccc(F)c(NC(=O)c2cc(C(F)(F)F)nnc2Oc2ccc(F)cc2Cl)c1` [Compound 72], the half-maximal inhibitory concentration (IC50) in assay [1] (setting [2]) and in assay [1] (setting [3]) was not above 200 nM each time.

On to `COc1cc(F)ccc1Oc1nnc(C(F)(F)F)cc1C(=O)Nc1cccc(-n2cnnc2C)c1` [Compound 54], for which the IC50 in assay [1] (setting [2]) and in assay [1] (setting [3]) was 1000 to 5000 nM in each case. As for `Cc1cc(-c2cnoc2)ccc1Oc1nnc(C(F)(F)F)cc1C(=O)Nc1cccc(S(C)(=O)=O)c1` [Compound 132, N-(3-Methanesulfonylphenyl)-3-[2-methyl-4-(1,2-oxazol-4-yl)phenoxy]-6-(trifluoromethyl)pyridazine-4-carboxamide], the IC50 in assay [1] (setting [2]) was not above 200 nM; in assay [1] (setting [3]), 201 to 500 nM.
